Laboratory results reported in US20100298141A1, “SUBSTITUTED PYRIDINE N-OXIDE HERBICIDES” (E. I. DU PONT DE NEMOURS AND COMPANY, priority 2007, published 2010).

Key:
[1] = tested on: bermudagrass; test: Test C pre-/postemergence test; format: in vivo, Cynodon dactylon; settings: for Plant response rating, Bermudagrass: scale 0 to 100, 0 no effect, 100 complete control
Excerpt: (§1) Seeds of plant species selected from blackgrass (Alopecurus myosuroides), downy brome (Bromus tectorum), green foxtail (Setaria viridis), Italian ryegrass (Lolium multiflorum), wheat (Triticum aestivum), wild oat (Avena fatua), catchweed bedstraw (Galium aparine), Russian thistle (Salsola kali), […] (Cynodon dactylon), Surinam grass (Brachiaria decumbens), cocklebur (Xanthium strumarium), corn (Zea mays), crabgrass (Digitaria sanguinalis), woolly cupgrass (Eriochloa villosa), giant foxtail (Setaria faberii), Goosegrass (Eleusin indica), johnsongrass (Sorghum halepense), kochia (Kochia scoparia), lambsquarters (Chenopodium album), morningglory (Ipomoea coccinea), eastern black nightshade (Solanum ptycanthum), yellow nutsedge (Cyperus esculentus), pigweed (Amaranthus retroflexus), common ragweed (Ambrosia elation), soybean (Glycine max), common (oilseed) sunflower (Helianthus annuus), and velvetleaf (Abutilon theophrasti) were planted and treated preemergence with test chemicals formulated in a non-phytotoxic solvent mixture which included a surfactant. At the same time, plants selected from these crop and weed species and also winter barley (Hordeum vulgare), canarygrass (Phalaris minor), and chickweed (Stellaria media) were treated with postemergence applications of some of the test chemicals formulated in the same manner. Plants ranged in height from 2 to 18 cm (1- to 4-leaf stage) for postemergence treatments. […] At time of treatment, test pots were flooded to 3 cm above the soil surface, treated by application of test compounds directly to the paddy water, and then maintained at that water depth for the duration of the test. […] A dash (-) response means no test result.

[2] = tested on: morningglory; test: Test C pre-/postemergence test; format: in vivo, Ipomoea coccinea; settings: for Plant response rating, Morningglory: scale 0 to 100, 0 no effect, 100 complete control
Excerpt: as §1

[3] = tested on: Italian ryegrass; test: Test C pre-/postemergence test; format: in vivo, Lolium multiflorum; settings: Postemergence; for Plant response rating, Ryegrass, Italian: scale 0 to 100, 0 no effect, 100 complete control
Excerpt: as §1

[4] = tested on: giant foxtail; test: Test A pre-/postemergence greenhouse test; format: in vivo, Setaria faberi; settings: for Foxtail, Giant plant response rating: 0 to 100 scale
Outline: (§2)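 Two application timings were run side by side in the greenhouse. Before emergence, compound went onto the soil surface of loam–sand pots as a directed spray; after emergence, plants at 2–10 cm and the one- to two-leaf stage were treated. Visual injury versus controls was rated at approximately day ten.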

[5] = tested on: wheat; test: Test A pre-/postemergence greenhouse test; format: in vivo, Triticum aestivum; settings: for Wheat plant response rating: 0 to 100 scale
Outline: as §2

[6] = tested on: Goosegrass; test: Test C pre-/postemergence test; format: in vivo, Eleusin indica; settings: for Plant response rating, Goosegrass: scale 0 to 100, 0 no effect, 100 complete control
Excerpt: as §1

[7] = tested on: pigweed; test: Test C pre-/postemergence test; format: in vivo, Amaranthus retroflexus; settings: for Plant response rating, Pigweed: scale 0 to 100, 0 no effect, 100 complete control
Excerpt: as §1

[8] = tested on: soybean; test: Test C pre-/postemergence test; format: in vivo, Glycine max; settings: for Plant response rating, Soybean: scale 0 to 100, 0 no effect, 100 complete control
Excerpt: as §1

[9] = tested on: crabgrass; test: Test A pre-/postemergence greenhouse test; format: in vivo, Digitaria sanguinalis; settings: for Crabgrass, Large plant response rating: 0 to 100 scale
Outline: as §2

[10] = tested on: wheat; test: Test C pre-/postemergence test; format: in vivo, Triticum aestivum; settings: Postemergence; for Plant response rating, Wheat: scale 0 to 100, 0 no effect, 100 complete control
Excerpt: as §1

[11] = tested on: morningglory; test: Test A pre-/postemergence greenhouse test; format: in vivo, Ipomoea spp.; settings: for Morningglory plant response rating: 0 to 100 scale
Outline: as §2

[12] = tested on: common (oilseed) sunflower; test: Test C pre-/postemergence test; format: in vivo, Helianthus annuus; settings: for Sunflower plant response rating: preemergence, scale 0 (no effect) to 100 (complete control)
Excerpt: as §1

[13] = tested on: corn; test: Test A pre-/postemergence greenhouse test; format: in vivo, Zea mays; settings: for Corn plant response rating: 0 to 100 scale
Outline: as §2

[14] = tested on: yellow nutsedge; test: Test C pre-/postemergence test; format: in vivo, Cyperus esculentus; settings: for Plant response rating, Nutsedge, Yellow: scale 0 to 100, 0 no effect, 100 complete control
Excerpt: as §1

[15] = 31 g ai/ha, Preemergence, scale 0 to 100
[16] = 62 g ai/ha, preemergence, scale 0 (no effect) to 100 (complete control)
[17] = preemergence, 125 g ai/ha, scale 0 (no effect) to 100 (complete control)
[18] = Postemergence, 125 g ai/ha, 0 is no effect, 100 is complete control
[19] = Postemergence, 500 g ai/ha, 0 is no effect, 100 is complete control
[20] = Preemergence, 125 g ai/ha, 0 no effect, 100 complete control
[21] = Preemergence, 500 g ai/ha, 0 to 100 scale where 0 is no effect and 100 is complete control

Compound: Cn1nc(C(F)(F)F)c(C[S+]([O-])c2ccc(Cl)c[n+]2[O-])c1OC(F)F (centres unmarked) [Compound 6]
- Bermudagrass plant response rating [1, 15]: 98
- Bermudagrass plant response rating [1, 16]: 98
- Plant response rating (0 to 100), Bermudagrass ([1]; Postemergence, 31 g ai/ha): 0
- Plant response rating, Bermudagrass ([1]; Postemergence, 62 g ai/ha): 10
- Plant response rating, Bermudagrass ([1]; Postemergence, 125 g ai/ha): 50
- Plant response rating, Bermudagrass ([1]; Postemergence, 250 g ai/ha): 80
- Plant response rating (0 to 100), Bermudagrass ([1]; Preemergence, 250 g ai/ha): 100
- Bermudagrass plant response rating [1, 17]: 100
- Morningglory plant response rating [2, 15]: 0
- Morningglory plant response rating [2, 16]: 0
- Plant response rating (0 to 100), Morningglory ([2]; Postemergence, 31 g ai/ha): 10
- Plant response rating, Morningglory ([2]; Postemergence, 62 g ai/ha): 50
- Plant response rating, Morningglory ([2]; Postemergence, 125 g ai/ha): 50
- Plant response rating, Morningglory ([2]; Postemergence, 250 g ai/ha): 50
- Plant response rating (0 to 100), Morningglory ([2]; Preemergence, 250 g ai/ha): 70
- Morningglory plant response rating [2, 17]: 10
- Plant response rating (0 to 100), Ryegrass, Italian ([3]; 31 g ai/ha): 0
- Plant response rating (0 to 100), Ryegrass, Italian ([3]; 62 g ai/ha): 50
- Plant response rating, Ryegrass, Italian ([3]; 125 g ai/ha): 85
- Plant response rating, Ryegrass, Italian ([3]; 250 g ai/ha): 90
- Foxtail, Giant plant response rating [4, 18]: 70
- Foxtail, Giant plant response rating [4, 19]: 90
- Foxtail, Giant plant response rating [4, 20]: 100
- Plant response rating, Foxtail, Giant [4, 21]: 100
- Wheat plant response rating [5, 18]: 30
- Wheat plant response rating [5, 19]: 70
- Wheat plant response rating [5, 20]: 90
- Plant response rating, Wheat [5, 21]: 90
- Goosegrass plant response rating [6, 15]: 98
- Goosegrass plant response rating [6, 16]: 100
- Plant response rating (0 to 100), Goosegrass ([6]; Postemergence, 31 g ai/ha): 0
- Plant response rating, Goosegrass ([6]; Postemergence, 62 g ai/ha): 0
- Plant response rating, Goosegrass ([6]; Postemergence, 125 g ai/ha): 20
- Plant response rating, Goosegrass ([6]; Postemergence, 250 g ai/ha): 45
- Plant response rating (0 to 100), Goosegrass ([6]; Preemergence, 250 g ai/ha): 100
- Goosegrass plant response rating [6, 17]: 100
- Pigweed plant response rating [7, 16]: 100
- Plant response rating (0 to 100), Pigweed ([7]; Postemergence, 31 g ai/ha): 0
- Plant response rating (0 to 100), Pigweed ([7]; Postemergence, 62 g ai/ha): 0
- Plant response rating, Pigweed ([7]; Postemergence, 125 g ai/ha): 0
- Plant response rating, Pigweed ([7]; Postemergence, 250 g ai/ha): 0
- Plant response rating (0 to 100), Pigweed ([7]; Preemergence, 250 g ai/ha): 100
- Soybean plant response rating [8, 15]: 0
- Soybean plant response rating [8, 16]: 0
- Plant response rating (0 to 100), Soybean ([8]; Postemergence, 31 g ai/ha): 5
- Plant response rating (0 to 100), Soybean ([8]; Postemergence, 62 g ai/ha): 60
- Plant response rating, Soybean ([8]; Postemergence, 125 g ai/ha): 70
- Plant response rating, Soybean ([8]; Postemergence, 250 g ai/ha): 90
- Plant response rating (0 to 100), Soybean ([8]; Preemergence, 250 g ai/ha): 50
- Soybean plant response rating [8, 17]: 0
- Crabgrass, Large plant response rating [9, 18]: 70
- Crabgrass, Large plant response rating [9, 19]: 90
- Crabgrass, Large plant response rating [9, 20]: 100
- Plant response rating, Crabgrass, Large [9, 21]: 100
- Plant response rating (0 to 100), Wheat ([10]; 31 g ai/ha): 20
- Plant response rating (0 to 100), Wheat ([10]; 62 g ai/ha): 20
- Plant response rating, Wheat ([10]; 125 g ai/ha): 20
- Plant response rating, Wheat ([10]; 250 g ai/ha): 25
- Morningglory plant response rating [11, 18]: 80
- Morningglory plant response rating [11, 19]: 90
- Morningglory plant response rating [11, 20]: 90
- Plant response rating, Morningglory [11, 21]: 100
- Sunflower plant response rating ([12]; 62 g ai/ha): 0
- Plant response rating (0 to 100), Sunflower ([12]; Preemergence, 250 g ai/ha): 10
- Sunflower plant response rating ([12]; 125 g ai/ha): 5
- Corn plant response rating [13, 18]: 60
- Corn plant response rating [13, 19]: 80
- Corn plant response rating [13, 20]: 80
- Plant response rating, Corn [13, 21]: 90
- Nutsedge, Yellow plant response rating [14, 15]: 0
- Nutsedge, Yellow plant response rating [14, 16]: 20
- Plant response rating (0 to 100), Nutsedge, Yellow ([14]; Postemergence, 31 g ai/ha): 0
- Plant response rating, Nutsedge, Yellow ([14]; Postemergence, 62 g ai/ha): 0
- Plant response rating, Nutsedge, Yellow ([14]; Postemergence, 125 g ai/ha): 0
- Plant response rating, Nutsedge, Yellow ([14]; Postemergence, 250 g ai/ha): 20
- Plant response rating (0 to 100), Nutsedge, Yellow ([14]; Preemergence, 250 g ai/ha): 98
- Nutsedge, Yellow plant response rating [14, 17]: 80
